Results reported in US11612595B2, “Compositions and methods for treating rheumatoid arthritis” (Generos Biopharma Ltd., priority 2017, dated 2023).

Columns and labels:
[1] = molecular target: SH2 domain of Lck (Homo sapiens, UniProt P06239); settings: read-out: IC50 towards the SH2 domain of Lck; cited from earlier work
[2] = molecular target: SH2 domain of STAT3 (Homo sapiens, UniProt P40763); settings: read-out: IC50 towards the SH2 domain of STAT3; cited from earlier work
[3] = molecular target: T1, STAT5b SH2 domain (Homo sapiens, UniProt P51692); settings: read-out: IC50 against STAT5b SH2 domain EPO peptide binding activity; cited from earlier work
T1 sequence (P51692 1-787): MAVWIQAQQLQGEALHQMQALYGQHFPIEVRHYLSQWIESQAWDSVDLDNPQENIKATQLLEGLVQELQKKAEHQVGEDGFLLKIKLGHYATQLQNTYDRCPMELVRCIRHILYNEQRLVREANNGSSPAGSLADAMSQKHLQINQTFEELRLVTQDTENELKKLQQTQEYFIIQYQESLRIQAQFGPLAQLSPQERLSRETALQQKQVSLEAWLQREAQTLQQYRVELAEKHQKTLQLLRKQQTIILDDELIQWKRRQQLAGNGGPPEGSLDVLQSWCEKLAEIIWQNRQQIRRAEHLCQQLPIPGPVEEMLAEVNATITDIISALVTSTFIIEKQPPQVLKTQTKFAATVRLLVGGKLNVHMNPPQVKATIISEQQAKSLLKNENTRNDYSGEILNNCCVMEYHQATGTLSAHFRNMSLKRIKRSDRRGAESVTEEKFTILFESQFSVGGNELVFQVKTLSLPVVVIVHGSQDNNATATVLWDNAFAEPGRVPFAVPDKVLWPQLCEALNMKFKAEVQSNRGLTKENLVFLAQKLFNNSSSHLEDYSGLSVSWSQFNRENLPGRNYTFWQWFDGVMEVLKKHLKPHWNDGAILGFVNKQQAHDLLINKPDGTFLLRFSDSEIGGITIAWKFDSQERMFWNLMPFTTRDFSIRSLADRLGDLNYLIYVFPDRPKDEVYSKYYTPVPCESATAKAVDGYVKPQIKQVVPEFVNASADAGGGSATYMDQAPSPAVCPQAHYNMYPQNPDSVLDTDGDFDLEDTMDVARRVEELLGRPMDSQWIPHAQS

[4] = test system: adjuvant-induced arthritis (AIA) rat model; test: AIA rat model, paw volume and clinical scores; format: in vivo, rats
Protocol: FIG. 3 is a graph illustrating the treatment scheme in an adjuvant-induced arthritis (AIA) rat model. In the prophylactic group, treatment starts from day 0 and administered every other day. In the therapeutic group, treatment starts from day 13 and was administered every other day.
(§1) Three groups (10 rats in each group) of female rats (age 8 weeks) were subject to AIA model induction and then to different treatment schemes. Specifically, 100 ug mBSA mixed with CFA was injected s.c. to flank near tail, and one dose of B. pertusiss was injected i.p. the next day to boost the immune reaction. The first of the three groups of rats were treated with DMSO (Vehicle). The second of the three groups of rats were treated with pimozide (Sigma-Aldrich) 10 mg/kg of body weight (same unit are used throughout this application) in 30% PEG300 solution via intraperitoneal injection with collagen injection starting from day 7 (Therapeutic). The last of the three groups of rats were treated with pimozide (Sigma-Aldrich) 10 mg/kg in 30% PEG300 solution via intraperitoneal injection either with collagen injection starting from day 0. As a control, a fourth group of female rats (5 rats) were spared the AIA model induction and were not treated. The inventors collected data of the weight, paw volume, and clinical scores every three days and performed statistic analysis.
The clinical scores were derived according to the scheme in Table 1.
The method used in the statistic analysis was Student's t test, unpaired, two-tailed analysis.

[5] = weight changes in rat AIA model; format: in vivo, rats
Protocol: FIG. 4 is a graph depicting weight changes in four groups of rat AIA models under different treatment schemes. Vehicle refers to the group of AIA model rats treated with DMSO. Therapeutic refers to the group of AIA model rats treated with pimozide (Sigma-Aldrich) 10 mg/kg in 30% PEG300 solution starting from day 13. Prophylactic refers to the group of AIA model rats treated with pimozide (Sigma-Aldrich) 10 mg/kg in 30% PEG300 solution starting from day 0. Normal refers to the group of rats without AIA model inducement.
as §1, with “As a control, a fourth group of female rats (5 rats) were spared the AIA model induction and were not treated. The inventors collected data of the weight, paw volume, and clinical scores every three days and performed statistic analysis.” left out

[6] = molecular target: T2, STAT1 (Homo sapiens, UniProt P42224); settings: K562 cells, 10 μM 1 h pretreatment; cited from earlier work
T2 sequence (P42224 1-750): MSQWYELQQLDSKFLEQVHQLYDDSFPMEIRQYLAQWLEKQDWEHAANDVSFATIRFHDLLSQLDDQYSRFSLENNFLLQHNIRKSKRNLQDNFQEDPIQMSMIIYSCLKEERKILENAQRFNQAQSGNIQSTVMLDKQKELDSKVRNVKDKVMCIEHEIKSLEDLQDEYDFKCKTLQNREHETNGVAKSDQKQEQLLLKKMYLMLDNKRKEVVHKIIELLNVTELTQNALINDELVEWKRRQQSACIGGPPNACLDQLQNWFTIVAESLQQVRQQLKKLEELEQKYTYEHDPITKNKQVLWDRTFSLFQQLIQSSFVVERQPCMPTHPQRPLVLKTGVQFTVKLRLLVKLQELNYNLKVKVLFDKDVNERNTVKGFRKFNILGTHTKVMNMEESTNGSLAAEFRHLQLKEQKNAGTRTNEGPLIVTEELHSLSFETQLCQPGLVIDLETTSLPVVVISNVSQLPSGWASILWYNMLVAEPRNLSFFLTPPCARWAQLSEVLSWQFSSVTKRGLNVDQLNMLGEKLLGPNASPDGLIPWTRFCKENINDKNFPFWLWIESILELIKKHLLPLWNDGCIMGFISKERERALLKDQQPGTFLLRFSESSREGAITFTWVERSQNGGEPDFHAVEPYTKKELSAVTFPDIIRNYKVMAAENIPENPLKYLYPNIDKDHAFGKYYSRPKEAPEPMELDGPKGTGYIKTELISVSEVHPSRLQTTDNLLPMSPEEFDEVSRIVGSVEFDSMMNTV

[7] = Prophylactic group, 10 mg/kg i.p. from day 0, starting from day 13
[8] = Therapeutic group, 10 mg/kg i.p., starting from day 17

SH2 domain of Lck, sequence (P06239 120-226 limits assumed): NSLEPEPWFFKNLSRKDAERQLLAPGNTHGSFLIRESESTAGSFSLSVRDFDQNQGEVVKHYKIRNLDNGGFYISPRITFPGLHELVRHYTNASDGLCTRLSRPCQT
SH2 domain of STAT3, sequence (P40763 whole entry, the tested form may be a part): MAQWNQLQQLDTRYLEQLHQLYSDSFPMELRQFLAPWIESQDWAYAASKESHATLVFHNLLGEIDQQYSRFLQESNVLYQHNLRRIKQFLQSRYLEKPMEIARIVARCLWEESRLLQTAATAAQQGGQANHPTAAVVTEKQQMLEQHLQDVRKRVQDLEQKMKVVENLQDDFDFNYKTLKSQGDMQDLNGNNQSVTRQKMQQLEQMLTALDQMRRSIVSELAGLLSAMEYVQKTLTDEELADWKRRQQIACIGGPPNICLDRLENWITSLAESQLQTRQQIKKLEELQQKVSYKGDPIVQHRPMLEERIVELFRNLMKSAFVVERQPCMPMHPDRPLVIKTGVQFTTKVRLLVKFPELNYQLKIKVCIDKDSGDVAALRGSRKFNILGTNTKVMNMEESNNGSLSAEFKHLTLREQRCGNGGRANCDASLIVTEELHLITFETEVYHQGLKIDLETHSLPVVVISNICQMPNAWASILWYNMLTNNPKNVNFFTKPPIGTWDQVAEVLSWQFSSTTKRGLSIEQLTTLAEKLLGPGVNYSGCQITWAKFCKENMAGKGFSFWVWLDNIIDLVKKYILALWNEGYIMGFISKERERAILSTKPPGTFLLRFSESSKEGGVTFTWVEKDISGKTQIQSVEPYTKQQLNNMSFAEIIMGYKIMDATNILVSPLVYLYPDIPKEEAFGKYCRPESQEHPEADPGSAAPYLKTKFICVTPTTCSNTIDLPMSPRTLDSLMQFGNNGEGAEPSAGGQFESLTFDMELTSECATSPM

SMILES	IC50 [1] [µM]	IC50 [2] [µM]	IC50 [3] [µM]	clinical score vs Vehicle group [4, 7]	paw volume vs Vehicle group [4, 7]	clinical score vs Vehicle group [4, 8]	paw volume vs Vehicle group [4, 8]	weight changes vs Vehicle ([5]; Prophylactic group, 10 mg/kg i.p. from day 0, at each time point)	weight changes vs Vehicle ([5]; Therapeutic group, 10 mg/kg i.p., at each time point)	IFNα-stimulated STAT1 phosphorylation [6]
O=C(N/N=C/c1coc2ccccc2c1=O)c1cccnc1 [nicotinohydrazide, N′-((4-Oxo-4H-chromen-3-yl)methylene)nicotinohydrazide]	> 500	> 500	47	–	–	–	–	–	–	–
O=c1[nH]c2ccccc2n1C1CCN(CCCC(c2ccc(F)cc2)c2ccc(F)cc2)CC1 [pimozide, 1-[1-[4,4-bis(4-fluorophenyl)butyl]-4-piperidinyl]-1,3-dihydro-2H-benzimidazole-2-one]	–	–	–	significantly decreased	significantly decreased	significantly decreased	significantly decreased	No significant difference	No significant difference	little activity
